Consider one compound from publication PMC12414871, “Unraveling the functional dynamics of Caenorhabditis elegans stress‐responsive omega class GST‐44” (The Febs Journal, 2025).

A word on the Km: it is the concentration of substrate that gives half-maximal velocity.

The test addresses T1, GST‐44 (Caenorhabditis elegans, UniProt O45352).
T1 construct: recombinant, E. coli BL21(DE3), vector pJC40 with removable N-terminal His tag, Ni-NTA purified
The test can be described thus: thioltransferase assay, substrate saturation curve and Lineweaver-Burk diagram. Type of test: biochemical. To be noted: co-substrate GSH (thioltransferase assay; reduction of spontaneously formed mixed disulfide).

T1 sequence (O45352 entry or part of it): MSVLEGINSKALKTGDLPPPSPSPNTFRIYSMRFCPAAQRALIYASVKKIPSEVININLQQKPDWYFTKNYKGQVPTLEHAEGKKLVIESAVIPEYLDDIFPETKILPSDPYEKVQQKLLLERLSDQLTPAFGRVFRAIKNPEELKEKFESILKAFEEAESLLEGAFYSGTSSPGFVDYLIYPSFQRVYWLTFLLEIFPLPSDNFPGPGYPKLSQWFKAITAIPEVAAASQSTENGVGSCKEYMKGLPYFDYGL

Consider `OCCSSCCO` [2‐hydroxyethyl disulfide], for which the Km was found to be 160 µM.
